Like-named read-outs stand apart in the source and are kept apart here.
Assays:
IKr = conditions: cited from earlier work
[1] = target: T1, IKr (rapidly activating delayed rectifier K+ current) (Cavia porcellus, UniProt O08703); experiment: voltage clamp measurement of IKr block in isolated guinea pig ventricular myocytes; type: cell-based
T1 construct: Guinea pig ventricular myocytes were isolated; endogenous in cells; host or cells: isolated guinea pig ventricular myocytes
T1 sequence (O08703 1-1294): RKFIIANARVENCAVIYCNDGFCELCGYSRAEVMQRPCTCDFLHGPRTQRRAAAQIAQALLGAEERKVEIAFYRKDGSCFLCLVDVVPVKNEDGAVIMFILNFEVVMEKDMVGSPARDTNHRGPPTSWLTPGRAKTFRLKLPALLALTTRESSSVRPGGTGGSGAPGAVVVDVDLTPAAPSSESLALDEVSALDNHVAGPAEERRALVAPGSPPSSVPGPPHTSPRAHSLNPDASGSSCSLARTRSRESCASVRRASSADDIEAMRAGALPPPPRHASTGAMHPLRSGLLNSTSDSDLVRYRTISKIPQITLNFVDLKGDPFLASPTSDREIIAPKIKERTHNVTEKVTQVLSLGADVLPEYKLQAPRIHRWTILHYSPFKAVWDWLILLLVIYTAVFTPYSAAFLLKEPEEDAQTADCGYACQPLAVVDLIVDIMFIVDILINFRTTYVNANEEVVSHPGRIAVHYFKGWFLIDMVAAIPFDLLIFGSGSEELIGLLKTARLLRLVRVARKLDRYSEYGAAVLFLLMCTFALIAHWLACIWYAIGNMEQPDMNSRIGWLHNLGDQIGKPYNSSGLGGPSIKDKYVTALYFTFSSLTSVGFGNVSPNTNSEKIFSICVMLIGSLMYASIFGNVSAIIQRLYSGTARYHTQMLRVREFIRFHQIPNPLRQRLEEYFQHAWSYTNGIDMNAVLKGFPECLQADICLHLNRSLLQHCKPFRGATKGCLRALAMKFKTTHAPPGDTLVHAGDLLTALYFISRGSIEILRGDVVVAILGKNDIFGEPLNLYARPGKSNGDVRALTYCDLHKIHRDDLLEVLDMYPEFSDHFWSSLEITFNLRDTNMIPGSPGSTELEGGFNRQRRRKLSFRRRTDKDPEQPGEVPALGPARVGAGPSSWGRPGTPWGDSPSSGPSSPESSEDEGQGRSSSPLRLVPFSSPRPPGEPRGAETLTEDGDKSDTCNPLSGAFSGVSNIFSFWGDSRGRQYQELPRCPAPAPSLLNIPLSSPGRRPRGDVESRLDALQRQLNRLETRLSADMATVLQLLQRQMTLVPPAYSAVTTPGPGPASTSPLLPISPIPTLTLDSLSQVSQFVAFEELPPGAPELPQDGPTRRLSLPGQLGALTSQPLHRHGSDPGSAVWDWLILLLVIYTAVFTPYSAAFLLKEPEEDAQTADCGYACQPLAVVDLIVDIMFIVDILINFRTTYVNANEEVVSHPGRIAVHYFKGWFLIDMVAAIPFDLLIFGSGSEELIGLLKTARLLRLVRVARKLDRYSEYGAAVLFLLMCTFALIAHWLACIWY
Protocol: (§1) Guinea pig ventricular myocytes were isolated using a modification of the procedure described by Mitra R and Morad M., "A Uniform Enzymatic Method for Dissociation of Myocytes from Hearts and Stomachs of Nertilorates", Am. J. Physiol. […] Excised hearts were perfused through the aorta (retrograde fashion) at a rate of 10 ml/min with oxygenated, warmed (37° C.) solutions described below. […] The head was then perfused with the same nominally Ca^2+ -free solution containing 150 units/ml Type II collagenase (Worthington) and 0.5 units/ml Type XIV protease (Sigma) for 8 minutes. This perfusate was followed by a Tyrode's solution containing 0.2 mM CaCl2 (without enzymes) for 5 minutes. The digested ventricles were cut into small pieces and gently shaken until cells were visibly dispersed. The cells were stored at room temperature until use, within 8 hours after isolation.
(§2) The suction microelectrode technique described by Giles, W. R. and Shibata, E. F., "Voltage clamp of bull-frog cardiac pacemaker cells: a quantitative, analysis of potassium currents". J. Physiol. […] Microelectrodes were made by using a two stage puller from square bore (1.0 mm o.d.) borosilicate capillary tubing. […] After establishing whole-cell recording mode, negative pressure was maintained on the pipette using a 1 ml gas-tight syringe attached via air tight tubing to the suction port of the microelectrode holder. This minimized dialysis of the cell with the pipette solution.
(§3) To record K^+ currents, the cells were bathed in a Ca^2+ -free Tyrode's :solution containing […] nisoldipine. […] A List EPC-7 clamp amplifier was used to voltage clamp the isolated cells. […] A variety of voltage pulse protocols were used to measure Ca^2+ current and three types of K^+ currents: inward rectifier (IK1), rapidly activating delayed rectifier (IKr) and the slowly activating delayed rectifier (IKs). Sanguinetti M. C. and Jurkiewicz, N. K., "Two components of cardiac delayed rectifier K^+ current: Differential sensitivity to block by Class III antiarrhythmic agents". […] Data was analyzed as % block from control membrane currents.
(§4) Nisoldipins was prepared as a 4 mM stock solution in polyethylne glycol 200. Compounds tested in this series were prepared as 10 mM stock solutions in polyethylene glycol 400 or dimethyl sulfoxide.

[2] = target: T2, IKs (slowly activating delayed rectifier K+ current) (Cavia porcellus, UniProt O70344); experiment: cell-based; type: cell-based, guinea pig
T2 construct: Guinea pig ventricular myocytes were isolated; endogenous in cells; host or cells: isolated guinea pig ventricular myocytes
Protocol: Current amplitude is measured as the difference from the initial instantaneous current level following the capacitance discharge after changing the transmembrane voltage from -50 mV to +50 mV, to the current level at the end of the 1 second voltage step. Normally, an increase in the current amplitude occurs as a function of time and voltage during depolarization of the cardiac cell membrane and this increasing current has been defined as the delayed rectifier K^+ current (IK). […] IKs current occurs as a consequence of time- and voltage-dependent opening of ionic channels or pores in the cardiac cell membrane that allow the relatively selective flow of potassium ions (K^+) from the inside to the outside of the cell, that is, down the voltage and concentration gradient for K^+ ions that is inherent in cardiac cells. Thus, block of the IKs current ultimately reflects block of certain ion channels or pores in the cardiac cell membrane. However, the single pores or channels thought to underlie the IKs current have yet to be measured or identified at the single channel level.
as §1, §2, §3, §4

L-type Ca2+ channels = conditions: 0.4 mM nisoldipine; cited from earlier work
K+ currents = conditions: 0.4 mM nisoldipine; cited from earlier work
IKs = conditions: cited from earlier work
adrenergic = conditions: cited from earlier work
Ca2+ currents = conditions: cited from earlier work
Na+ currents = conditions: cited from earlier work
thyroid function = conditions: cited from earlier work
phospholipase = conditions: cited from earlier work
[3] = cited from earlier work
[4] = read-out: IC50 or % Block (μM), IKr (% block)
[5] = 1 μM, read-out: Cellular Electrophysiology (% Block), IKr
[6] = 10 μM, read-out: Cellular Electrophysiology (% Block), IKr
[7] = 1 μM, read-out: Cellular Electrophysiology (% Block), IKs
[8] = 10 μM, read-out: Cellular Electrophysiology (% Block), IKs
[9] = read-out: Cellular Electrophysiology (% Block), IKr
[10] = read-out: Cellular Electrophysiology (% Block), IKs

In the case of `CS(=O)(=O)Nc1ccc2c(c1)C(O)CC1(CCN(C3CCc4cc(C#N)ccc4C3)CC1)O2` (single isomer, unassigned), the “block of IKr” value (IKr) is given as “predominantly, if not exclusively, block IKr”.
Molecule `CN1C(=O)[C@H](NC(=O)c2cc3ccccc3[nH]2)N=C(c2ccccc2)c2ccccc21` [Compound 1, 3(R)-(+)-1,3-dihydro-3-(2-indolecarbonylamino)-1-methyl-5-phenyl-2H-1,4-benzodiazepin-2-one] has an inhibition at 1 µM [1, 4] of 20%.
With `CN1C(=O)[C@@H](NC(=O)c2cc3ccccc3[nH]2)N=C(c2ccccc2)c2ccccc21` [Compound 2, 3(S)-(-)-1,3-dihydro-3-(2-indolecarbonylamino)-1-methyl-5-phenyl-2H-1,4-benzodiazepin-2-one] the inhibition at 1 µM [1, 4] was 21% and the inhibition at 1 µM ([2]; read-out: IC50 or % Block (μM), IKs (% block)) was 25%.
In the case of `CC(C)S(=O)(=O)NC(=O)c1cccc(NC(=O)NC2N=C(C3CCCCC3)c3ccccc3N(C)C2=O)c1` (stereo not shown) [Example 5], the inhibition at 1 µM [1, 5] is reported as 16.1%, the inhibition at 10 µM [1, 6] is reported as 24.7 ± 13% and the IC50 ([1]; Guinea Pig Myocytes, read-out: IC50 or % Block (μM), IKr (bare number: IC50)) is reported as 77 µM. For the same molecule, the inhibition at 1 µM [2, 7] was 10%, the inhibition at 10 µM [2, 8] was 30.5 ± 6.6% and the IC50 ([2]; Guinea Pig Myocytes, read-out: IC50 or % Block (μM), IKs (bare number: IC50)) was 57 µM.
`CN1C(=O)[C@H](N)N=C(c2ccccc2)c2ccccc21` [Example 7] gave an inhibition at 1 µM [1, 9] of 14.8 ± 6.7%, an inhibition at 10 µM [1, 9] of 36.4 ± 2.9% and an inhibition at 1 µM [2, 10] of 29.9 ± 6%. It also gave an inhibition at 10 µM [2, 10] of 43.4 ± 10.8%.
Work on `CN1C(=O)C(NC(=O)c2cc3ccccc3[nH]2)N=C(c2ccncc2)c2ccccc21` (stereo not shown) [Example 9] yielded an inhibition at 1 µM [1, 5] of 44.3%, an inhibition at 10 µM [1, 6] of 82.4% and an inhibition at 1 µM [2, 7] of 20%. For the same molecule, the inhibition at 10 µM [2, 8] was 66%.
Work on `Cc1cccc(NC(=O)NC2N=C(N3CCOCC3)c3ccccc3N(C)C2=O)c1` (stereo not shown) [Example 12] yielded an inhibition at 1 µM [1, 5] of 13 ± 3.1%, an inhibition at 10 µM [1, 6] of 30 ± 5.4% and an inhibition at 10 µM [2, 8] of 16 ± 11%.
With `CN1C(=O)[C@H](NC(=O)C2CCC3(CC2)CCN(C(=O)OC(C)(C)C)CC3)N=C(c2ccccc2)c2ccccc21` [Example 40, (+)-N-[(3R)-2,3-Dihydro-1-methyl-2-oxo-5-phenyl-1H-1,4-benzo-diazepin-3-yl]-1'-(1,1-dimethylethoxycarbonyl)spiro(cyclohexan-4,4'-piperidine)-1-carboxamide] the “IKs inhibition, purity of action” value ([2]; in words) was “not a pure IKs inhibitor”.
In the case of `COC(=O)C1=C(C)NC(C)=C(C(=O)OCC(C)C)C1c1ccccc1[N+](=O)[O-]` (stereo not shown) [Nisoldipine], the “block of L-type Ca2+ channels” value (L-type Ca2+ channels) is listed as “relatively specific blocker of L-type Ca^2+ channels” and the “effect on K+ currents” value (K+ currents) is listed as “no effect on K^+ currents”.
In the case of `CCCCc1oc2ccccc2c1C(=O)c1cc(I)c(OCCN(CC)CC)c(I)c1` [amiodarone], the “block of IKs” value (IKs) is given as “blocker of IKs”, the adrenergic block (adrenergic) is given as “nonspecific adrenergic blocker” and the “block of Ca2+ currents” value (Ca2+ currents) is given as “blocks Na^+ and Ca^2+ currents”. The “block of Na+ currents” value (Na+ currents) was “blocks Na^+ and Ca^2+ currents”, the “effect on thyroid function” value (thyroid function) was “effects thyroid function” and the inhibition of phospholipase (phospholipase) was “inhbitor of the enzyme phospholipase”. For the same molecule, the “Class III properties / selectivity” value [3] was “interesting Class III properties” and the “Class III properties / selectivity” value ([3]; listed as Amiodarone) was “not a selective Class III antiarrhythmic agent”.
For `CC(C)NCC(O)c1ccc(NS(C)(=O)=O)cc1` (stereo not drawn) [d-sotalol], the “block of IKr” value (IKr) is given as “predominantly, if not exclusively, block IKr”.
In the case of `CN(CCOc1ccc(NS(C)(=O)=O)cc1)CCc1ccc(NS(C)(=O)=O)cc1` [dofetilide], the “block of IKr” value (IKr) is listed as “predominantly, if not exclusively, block IKr”.
